Where a chain is given by its changes, count along the chain named.
How the values were obtained:
Format in all cases: cell-based
wild-type AR = target: T1, wild-type AR (Homo sapiens, UniProt P10275); test: Luciferase reporter assay, PC3 cells transfected with wild-type AR; conditions: in the presence of R1881
T1 construct: Full-length human wild type AR was cloned into pcDNA3.1 expression plasmid; expressed in transfected cells; host or cells: PC3
T1 sequence (P10275 1-920): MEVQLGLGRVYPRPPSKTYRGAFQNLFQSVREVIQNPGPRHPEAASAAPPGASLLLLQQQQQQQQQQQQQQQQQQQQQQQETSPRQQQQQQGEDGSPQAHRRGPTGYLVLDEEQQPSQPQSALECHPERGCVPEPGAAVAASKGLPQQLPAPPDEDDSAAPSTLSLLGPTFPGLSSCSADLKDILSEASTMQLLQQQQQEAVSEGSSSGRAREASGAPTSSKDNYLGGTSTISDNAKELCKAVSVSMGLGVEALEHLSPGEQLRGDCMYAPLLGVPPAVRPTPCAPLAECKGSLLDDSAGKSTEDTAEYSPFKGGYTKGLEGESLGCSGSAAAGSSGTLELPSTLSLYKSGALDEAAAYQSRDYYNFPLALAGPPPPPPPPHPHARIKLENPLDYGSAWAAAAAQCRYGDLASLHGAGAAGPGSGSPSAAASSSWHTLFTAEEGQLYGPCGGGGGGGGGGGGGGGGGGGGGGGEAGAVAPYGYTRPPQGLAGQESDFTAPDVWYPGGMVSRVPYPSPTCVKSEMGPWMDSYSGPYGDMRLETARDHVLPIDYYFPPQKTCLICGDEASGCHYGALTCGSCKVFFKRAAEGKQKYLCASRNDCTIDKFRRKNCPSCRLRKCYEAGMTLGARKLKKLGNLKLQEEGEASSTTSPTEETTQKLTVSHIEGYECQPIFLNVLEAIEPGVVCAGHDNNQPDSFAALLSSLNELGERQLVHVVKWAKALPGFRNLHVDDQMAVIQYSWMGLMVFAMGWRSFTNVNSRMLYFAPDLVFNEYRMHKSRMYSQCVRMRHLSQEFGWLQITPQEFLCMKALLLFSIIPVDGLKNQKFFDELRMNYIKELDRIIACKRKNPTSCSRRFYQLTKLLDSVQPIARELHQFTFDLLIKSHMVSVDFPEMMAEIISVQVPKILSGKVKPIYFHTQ
Procedure: (§1) Full-length human wild type AR was cloned into pcDNA3.1 expression plasmid (Invitrogen, Waltham, MA, USA) with a CMV promoter. The T878A mutant (T878A-AR) was generated with the Quikchange Mutagenesis Kit (Stratagene, San Diego, CA, USA) using hARWT plasmid as a template. Androgen-starved PC3 cells were seeded in 96-well plates (3000 cells/well) in RPMI 1640 + 5% CSS for 24 h followed by transfection with 50 ng of hARWT or hART878A along with 50 ng of ARR3tk-luciferase reporter construct (100 ng total plasmid DNA) and 0.3 µL/well TransIT20/20 transfection reagent (TT2020, Mirus, Madison, Wisconsin, WI, USA) for 48 h. Cells were treated with increasing amounts of test compound (0.1% final DMSO concentration) and 0.1 nM R1881 for 24 h. Cell lysis was carried out with 60 µL 1X passive lysis buffer/well (Promega, Madison, Wisconsin, WI, USA). The luminescence from 20 µL of cell lysate and 50 µL of Luciferase assay reagent (Promega, Madison, Wisconsin, WI, USA) was recorded on a TECAN M200pro plate reader.

T878A-AR mutant = target: T2, T878A-AR mutant (Homo sapiens, UniProt P10275, T878A); test: Luciferase reporter assay, PC3 cells transfected with T878A-AR; conditions: in the presence and absence of R1881
T2 construct: Full-length human wild type AR was cloned into pcDNA3.1 expression plasmid; expressed in transfected cells; host or cells: PC3
T2 sequence (P10275 1-920 T878A): T1 sequence (P10275 1-920) with T878A
Procedure: as §1, with “Cells were treated with increasing amounts of test compound (0.1% final DMSO concentration) and 0.1 nM R1881 for 24 h.” left out

[1] = target: T3, AR (LNCaP cells, which carry the T878A AR mutation) (Homo sapiens, UniProt P10275, T878A); test: eGFP cellular AR transcription assay in LNCaP cells (LN-ARR2PB-eGFP); conditions: eGFP-expressing LNCaP cells, no R1881
T3 construct: LNCaP cells, which carry the T878A AR mutation; endogenous in cells; host or cells: LNCaP (LN-ARR2PB-eGFP)
T3 sequence (P10275 1-920 T878A): T1 sequence (P10275 1-920) with T878A

For `COc1c(F)cccc1-c1csc(N2CCOCC2)n1` [VPC14368, 4-(4-(3-fluoro-2-methoxyphenyl)thiazol-2-yl)morpholine], which “AR transcription, wild-type AR” value (wild-type AR) is on record?
Its value is “inhibited by VPC14368 in a dose-dependent manner”.

And the “Concentration above which transcriptional activation of the T878A AR mutant is induced” value (T878A-AR mutant)?
The value was “higher than 0.4 µM”.

And the “AR transcriptional activity in the absence of R1881” value [1]?
Its value is “enhanced the AR transcriptional activity”.
